In patent publication US20030170730A1, “Assay method, peptides and reagent kits for testing mrp-specific inhibitors” (priority 2000, published 2003):

How the values were obtained:
MRP1-MDR1 chimeras = type: biochemical, human; conditions: pretreatment with 1 mM
Description: (§1) The filters were washed twice with 0.5 ml of cold transport buffer, and filter-bound radioactivity was measured in scintillation fluid (Optifluor, Packard). ATP-dependent transport was calculated by subtracting the activity values obtained with AMP from those in the presence of ATP.
Covalent photoaffinty labeling of the proteins was performed with Mg-8-azido-[α-^32P)-ATP in the presence of vanadate as a trapping agent (set Materials and Methods).

MRP1 variants = MRP1 variants (Homo sapiens, UniProt P33527); test: Vanadate-dependent nucleotide trapping by MRP1 variants in Sf9 membranes; conditions: pretreatment with 1 mM
MRP1 = MRP1 (Homo sapiens, UniProt P33527); test: ATP-dependent tracer (LTC4, NEM-GS) uptake in Sf9 membrane vesicles containing MRP1; conditions: 37° C.
MRP1, sequence (P33527 whole entry): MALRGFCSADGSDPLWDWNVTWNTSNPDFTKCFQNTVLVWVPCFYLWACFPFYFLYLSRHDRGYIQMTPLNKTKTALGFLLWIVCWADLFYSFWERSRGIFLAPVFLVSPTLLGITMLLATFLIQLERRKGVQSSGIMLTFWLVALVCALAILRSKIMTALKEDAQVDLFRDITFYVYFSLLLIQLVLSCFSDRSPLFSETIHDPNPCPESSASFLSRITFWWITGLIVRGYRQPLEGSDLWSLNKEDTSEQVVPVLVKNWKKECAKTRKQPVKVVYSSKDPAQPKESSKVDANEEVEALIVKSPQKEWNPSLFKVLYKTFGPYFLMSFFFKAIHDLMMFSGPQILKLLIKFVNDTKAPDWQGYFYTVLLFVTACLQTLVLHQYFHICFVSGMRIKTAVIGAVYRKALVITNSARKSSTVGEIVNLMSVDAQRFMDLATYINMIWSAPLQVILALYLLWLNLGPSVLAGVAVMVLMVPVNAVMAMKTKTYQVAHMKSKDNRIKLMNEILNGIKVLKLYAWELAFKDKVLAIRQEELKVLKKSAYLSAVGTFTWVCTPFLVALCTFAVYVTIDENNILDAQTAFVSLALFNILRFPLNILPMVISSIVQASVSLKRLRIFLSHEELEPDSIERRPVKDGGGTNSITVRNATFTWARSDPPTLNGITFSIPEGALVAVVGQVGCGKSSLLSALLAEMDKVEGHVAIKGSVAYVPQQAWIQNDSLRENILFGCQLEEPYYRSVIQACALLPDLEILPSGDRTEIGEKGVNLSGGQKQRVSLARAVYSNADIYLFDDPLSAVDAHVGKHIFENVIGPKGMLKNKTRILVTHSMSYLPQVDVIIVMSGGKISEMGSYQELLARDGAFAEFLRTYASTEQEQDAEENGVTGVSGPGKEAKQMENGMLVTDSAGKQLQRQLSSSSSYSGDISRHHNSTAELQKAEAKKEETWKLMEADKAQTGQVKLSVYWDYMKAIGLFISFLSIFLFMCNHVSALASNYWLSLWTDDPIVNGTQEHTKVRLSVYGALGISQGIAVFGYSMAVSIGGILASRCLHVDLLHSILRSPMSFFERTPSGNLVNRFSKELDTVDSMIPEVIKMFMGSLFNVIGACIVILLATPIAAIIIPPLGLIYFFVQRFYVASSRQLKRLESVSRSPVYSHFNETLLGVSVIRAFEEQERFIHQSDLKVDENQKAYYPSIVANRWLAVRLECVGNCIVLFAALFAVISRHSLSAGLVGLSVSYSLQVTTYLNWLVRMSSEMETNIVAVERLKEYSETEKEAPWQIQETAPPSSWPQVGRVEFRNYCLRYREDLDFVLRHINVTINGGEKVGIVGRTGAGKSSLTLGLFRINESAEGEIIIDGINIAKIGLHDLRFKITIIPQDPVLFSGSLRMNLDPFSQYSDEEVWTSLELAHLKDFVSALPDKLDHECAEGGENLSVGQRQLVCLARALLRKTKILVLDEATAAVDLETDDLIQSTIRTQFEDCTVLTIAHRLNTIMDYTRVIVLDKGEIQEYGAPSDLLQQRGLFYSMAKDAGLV
Description: as §1

co-expressed ΔMRP1+L0 = co-expressed ΔMRP1+L0 (Homo sapiens, UniProt P33527); test: ATP-dependent tracer (LTC4, NEM-GS) uptake in Sf9 membrane vesicles containing co-expressed ΔMRP1 and L0; conditions: read-out: Km for transport of NEM-GS
co-expressed ΔMRP1+L0, sequence (P33527 281-1531, stated change not applied): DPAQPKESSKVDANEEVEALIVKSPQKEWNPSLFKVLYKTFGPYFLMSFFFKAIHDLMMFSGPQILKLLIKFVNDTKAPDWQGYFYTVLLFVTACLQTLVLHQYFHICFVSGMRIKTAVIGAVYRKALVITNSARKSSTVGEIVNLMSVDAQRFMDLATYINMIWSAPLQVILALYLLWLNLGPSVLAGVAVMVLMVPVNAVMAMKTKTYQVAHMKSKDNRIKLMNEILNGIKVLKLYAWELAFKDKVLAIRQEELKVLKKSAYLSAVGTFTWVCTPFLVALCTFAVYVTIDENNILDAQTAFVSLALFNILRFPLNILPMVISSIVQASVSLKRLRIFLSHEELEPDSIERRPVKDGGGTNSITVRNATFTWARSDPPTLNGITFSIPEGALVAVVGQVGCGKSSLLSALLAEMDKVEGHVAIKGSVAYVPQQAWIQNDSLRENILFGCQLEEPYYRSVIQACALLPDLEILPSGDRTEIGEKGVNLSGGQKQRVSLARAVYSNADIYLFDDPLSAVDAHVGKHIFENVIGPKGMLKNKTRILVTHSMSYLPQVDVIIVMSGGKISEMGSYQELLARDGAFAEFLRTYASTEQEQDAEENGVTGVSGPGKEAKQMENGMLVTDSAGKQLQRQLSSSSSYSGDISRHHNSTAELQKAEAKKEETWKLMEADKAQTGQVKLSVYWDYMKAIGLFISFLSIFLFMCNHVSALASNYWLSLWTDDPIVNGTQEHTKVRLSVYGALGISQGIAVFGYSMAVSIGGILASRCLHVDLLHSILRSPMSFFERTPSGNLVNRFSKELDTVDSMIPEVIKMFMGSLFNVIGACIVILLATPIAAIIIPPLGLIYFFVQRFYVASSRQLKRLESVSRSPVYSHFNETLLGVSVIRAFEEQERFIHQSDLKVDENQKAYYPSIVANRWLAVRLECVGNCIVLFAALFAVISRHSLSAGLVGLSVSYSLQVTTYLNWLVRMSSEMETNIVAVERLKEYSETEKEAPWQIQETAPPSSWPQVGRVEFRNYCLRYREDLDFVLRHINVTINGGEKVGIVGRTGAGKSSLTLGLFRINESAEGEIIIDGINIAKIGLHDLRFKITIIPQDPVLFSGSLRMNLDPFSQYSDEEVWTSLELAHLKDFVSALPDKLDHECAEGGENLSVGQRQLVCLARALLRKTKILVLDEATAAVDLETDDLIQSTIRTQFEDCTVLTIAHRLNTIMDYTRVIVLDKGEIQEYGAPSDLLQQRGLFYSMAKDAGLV
co-expressed ΔMRP1+L0, sequence (P33527 204-281, stated change not applied): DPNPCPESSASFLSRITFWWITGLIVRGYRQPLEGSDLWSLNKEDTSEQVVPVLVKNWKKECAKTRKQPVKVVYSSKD
Description: as §1

[1] = tested on: murine and human cells expressing MRP; conditions: cited from earlier work

MRP1 variants, sequence (P33527 281-1531): as the sequence (P33527 281-1531, stated change not applied) above
MRP1 variants, sequence (P33527 with tags, fused parts or gaps): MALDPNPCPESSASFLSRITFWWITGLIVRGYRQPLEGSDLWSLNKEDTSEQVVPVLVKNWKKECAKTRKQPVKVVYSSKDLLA

Question: For CCN1C(=O)C=CC1=O [N-ethylmaleimide], which “inhibition of nucleotide trapping” value (MRP1-MDR1 chimeras) is on record?
Answer: full inhibition

Question: What about the “inhibition of nucleotide trapping” value (MRP1 variants) of the same compound?
Answer: full inhibition

Question: For CCN1C(=O)CC(SC[C@H](NC(=O)CC[C@H](N)C(=O)O)C(=O)NCC(=O)O)C1=O (stereo partly drawn) [NEM-GS], which “initial rate of ATP-dependent NEM-GS transport” value (MRP1; 50 μM NEM-GS, MRP1 containing membranes) is on record?
Answer: about 250 pmol mg^−1

Question: And the Km (MRP1; read-out: Km for transport of NEM-GS, wild-type MRP1, Sf9 membrane vesicles)?
Answer: 150 µM

Question: What about the Km (co-expressed ΔMRP1+L0) of the same compound?
Answer: ~400 µM

Question: With COc1ccc2c(c1)c(CC(=O)O)c(C)n2C(=O)c1ccc(Cl)cc1 [indomethacine] as the compound, how does the “efflux of fluorescent dye BCECF” value [1] read?
Answer: effectively inhibited
